In patent publication US10537525B2, “Methods and materials for delivering agents to liver tissue” (Mayo Foundation for Medical Education and Research, priority 2015, dated 2020):

What was measured:
[1] = Endoscopic ultrasound-guided portal vein injection of irinotecan loaded microbeads vs jugular vein irinotecan: plasma and tissue concentrations (LC/MS); assay type: in vivo, pigs; conditions: control: unloaded irinotecan 100 mg into jugular vein; for concentration at 1 h: pig, intravenous
Experimental: Irinotecan and SN-38 (active metabolite) concentrations were determined using LC/MS.

[2] = control: unloaded doxorubicin 100 mg into jugular vein; plasma every 15 min for one hour
Experimental: (§1) The following was performed to assess the use of endoscopic ultrasound-guided portal vein injection of doxorubicin loaded microbeads to achieve increased intrahepatic concentrations of doxorubicin while decreasing systemic doxorubicin exposure.
(§2) Endoscopic ultrasound-guided portal vein injections were administered to 8 anesthetized 35 kg pigs transgastrically using a linear array echoendoscope and a 22 gauge fine-needle aspiration needle. Briefly, an Olympus linear array echoendoscope was inserted perorally to the stomach. The portal vein was identified by location, appearance, and pulse-wave Dopper signature. A 22 gauge fine-needle aspiration needle (Cook Medical) was advanced transgastrically into the portal vein.
(§3) In 4 animals, doxorubicin (100 mg) loaded onto 75-150 micron LC Beads® (Biocompatibles UK LTD) was injected. In 4 animals, saline was injected into the portal vein, and unloaded doxorubicin (100 mg) was injected into the jugular vein. Plasma was collected at baseline and every 15 minutes for one hour. At 1 hour, laparotomy was performed, and liver and heart samples were obtained and frozen. Bone marrow aspirates were obtained at one hour from the right anterior tibia. Doxorubicin concentrations were determined using LC/MS.

in vivo [3] = conditions: pig, intravenous, 100 mg
Experimental: as §1, §2, §3

in vivo [4] = conditions: male, pig, intravenous, 50 mg
Experimental: The aim was to determine 7-day safety, toxicity, and drug levels in the survival porcine model of endoscopic ultrasound-guided injections using irinotecan and doxorubicin loaded onto microbeads, as compared with systemic injection.
Sixteen anesthetized 35 kg male pigs were treated with 50 mg of either irinotecan (n=8) or doxorubicin (n=8). […] Within each drug group, half (n=4) were treated with endoscopic ultrasound-guided injections using 75-150 micron LC Beads (Biocompatibles) or endoscopic ultrasound-guided injection of drug not loaded onto microbeads into the IVC, using 22g endoscopic ultrasound needles via a transgastric approach. Each animal received only one drug by one route. Animals were observed twice daily for 7 days for clinical signs of toxicity. Whole blood for cell counts and plasma chemistries were obtained at baseline and at 7 days. […] 7 day drug levels were measured by LC-mass spectometry on plasma, bone marrow, liver and heart.

[5] = 50 mg, either group (microbeads portal vein or unloaded drug into IVC)

Irinotecan level, Peak Plasma ([1]; plasma every 15 min for one hour) [ng/mL]	concentration at 1 h ([1]; bone marrow, at one hour, read-out: Irinotecan level, Bone Marrow) [ng/mL]	concentration at 1 h ([1]; skeletal muscle at 1 hour, read-out: Irinotecan level, Muscle) [ng/g]	concentration at 1 h ([1]; liver, at 1 hour, read-out: Irinotecan level, Liver) [ng/g]	irinotecan level at 7 days (50 mg, any samples (plasma, bone marrow, liver, heart), microbeads portal vein or unloaded drug into IVC)	SN-38 (active metabolite of irinotecan) level at 7 days (irinotecan 50 mg, any samples (plasma, bone marrow, liver, heart), microbeads portal vein or unloaded drug into IVC)	Doxorubicin level, Peak Plasma [2] [ng/mL]	doxorubicin level in bone marrow at 7 days [5]	doxorubicin level in plasma at 7 days [5]	concentration at 1 h (in vivo [3]; bone marrow) [ng/mL]	concentration at 1 h (in vivo [3]; heart) [ng/g]	concentration at 1 h (in vivo [3]; liver) [ng/g]	concentration at 7 days (in vivo [4]; heart) [ng/g]	concentration at 7 days (in vivo [4]; liver) [ng/g]	SMILES
2762	1700	1060	3690	no detectable	no detectable	–	–	–	–	–	–	–	–	CCc1c2c(nc3ccc(OC(=O)N4CCC(N5CCCCC5)CC4)cc13)-c1cc3c(c(=O)n1C2)COC(=O)[C@]3(O)CC [Irinotecan, (S)-4,11-diethyl-3,4,12,14-tetrahydro-4-hydroxy-3,14-dioxo1H-pyrano[3′,4′:6,7]-indolizino[1,2-b]quinolin-9-yl-[1,4′bipiperidine]-1′-carboxylate]
–	–	–	–	–	–	2041	no drug was detected	no drug was detected	25	4800	6930	138	151	COc1cccc2c1C(=O)c1c(O)c3c(c(O)c1C2=O)C[C@@](O)(C(=O)CO)C[C@@H]3O[C@H]1C[C@H](N)[C@H](O)[C@H](C)O1 [doxorubicin, (7S,9S)-7-[(2R,4S,5S,6S)-4-amino-5-hydroxy-6-methyloxan-2-yl]oxy-6,9,11-trihydroxy-9-(2-hydroxyacetyl)-4-methoxy-8,10-dihydro-7H-tetracene-5,12-dione]
